How the values were obtained:
[1] = Inhibition of xanthine oxidase assessed as conversion of xanthine to uric acid incubated for 3 min
[2] = test system: Candida albicans; experiment: Antimicrobial activity against Candida albicans at 100 ug after 24 hr by disk diffusion method; type: functional; details: read-out: DIZ
[3] = test system: Corynebacterium accolens; experiment: Antimicrobial activity against Corynebacterium accolens at 100 ug after 24 hr by disk diffusion method; type: functional; details: read-out: DIZ
[4] = test system: Staphylococcus aureus; experiment: Antimicrobial activity against Staphylococcus aureus at 100 ug after 24 hr by disk diffusion method; type: functional; details: read-out: DIZ
[5] = test system: Pectobacterium carotovorum; experiment: Antimicrobial activity against Pectobacterium carotovorum at 100 ug after 24 hr by disk diffusion method; type: functional; details: read-out: DIZ
[6] = test system: Corynebacterium accolens; experiment: Antimicrobial activity against Corynebacterium accolens at 10 ug after 24 hr by disk diffusion method; type: functional, organism-based
[7] = test system: Staphylococcus aureus; experiment: Antimicrobial activity against Staphylococcus aureus at 10 ug after 24 hr by disk diffusion method; type: functional, organism-based
[8] = test system: Pectobacterium carotovorum; experiment: Antimicrobial activity against Pectobacterium carotovorum at 10 ug after 24 hr by disk diffusion method; type: functional, organism-based
[9] = test system: Candida albicans; experiment: Antimicrobial activity against Candida albicans at 20 ug after 24 hr by disk diffusion method; type: functional, organism-based

Molecule	IC50 [1] [µM]	zone of inhibition at 100 µg/disc [2] [mm]	zone of inhibition at 100 µg/disc [3] [mm]	zone of inhibition at 100 µg/disc [4] [mm]	zone of inhibition at 100 µg/disc [5] [mm]	inhibition zone (IZ) [6] [mm]	inhibition zone (IZ) [7] [mm]	inhibition zone (IZ) [8] [mm]	inhibition zone (IZ) [9] [mm]
O=C(O[C@@H]1O[C@@H]2COC(=O)c3cc(O)c(O)c(O)c3-c3c(cc(Oc4c(C(=O)O)cc(O)c(O)c4O)c(O)c3O)C(=O)O[C@H]([C@H]1O)[C@@H]2O)c1cc(O)c(O)c(O)c1 [MALLOTINIC ACID]	> 100	9	9	9	13	–	–	–	–
O=c1oc2c(O)c(O[C@@H]3OC[C@@H](O)[C@H](O)[C@H]3O)cc3c(=O)oc4c(O)c(O)cc1c4c23 [ELLAGIC ACID 4-O-XYLOPYRANOSIDE]	4.7	0	0	0	12	–	–	–	–
GENTAMICIN SULFATE	–	–	–	–	–	28	14	21	–
O=c1c(O)c(-c2ccc(O)c(O)c2)oc2cc(O)cc(O)c12 [QUERCETIN]	10	–	–	–	–	–	–	–	–
NYSTATIN	–	–	–	–	–	–	–	–	11
O=c1oc2c(O)c(O)cc3c(=O)oc4c(O)c(O)cc1c4c23 [ELLAGIC ACID]	9.3	10	12	0	15	–	–	–	–
O=C(O)c1cc(O)c(O)c(O)c1 [GALLIC ACID]	41.7	7	7	7	13	–	–	–	–
O=C(Oc1c(O)cc2c(c1O)-c1c(cc(O)c(O)c1O)C(=O)OC[C@H]1O[C@@H](OC(=O)c3cc(O)c(O)c(O)c3)[C@H](O)[C@@H](OC2=O)[C@@H]1O)c1cc(O)c(O)c(O)c1 [MALLOREPANIN]	> 100	10	10	10	15	–	–	–	–
O=C(O[C@@H]1O[C@@H]2COC(=O)c3cc(O)c(O)c(O)c3-c3c(cc(O)c(O)c3O)C(=O)O[C@H]([C@H]1O)[C@@H]2O)c1cc(O)c(O)c(O)c1 [CORILAGIN]	> 100	12	12	12	20	–	–	–	–
O=C(O)C[C@@H]1C(=O)O[C@H]2[C@@H]3OC(=O)c4cc(O)c(O)c(O)c4-c4c(cc(O)c(O)c4O)C(=O)OC[C@H]2O[C@@H](OC(=O)c2cc(O)c(O)c(O)c2)[C@@H]3OC(=O)c2cc(O)c(O)c3c2[C@H]1[C@H](O)C(=O)O3 [CHEBULAGIC ACID]	48	12	10	11	19	–	–	–	–

From ChEMBL document CHEMBL3046377, “Bioactive ellagitannins from Cunonia macrophylla, an endemic Cunoniaceae from New Caledonia” (Phytochemistry, 2005)
